Measurements as given in US9125913B2, “Bcl-2-selective apoptosis-inducing agents for the treatment of cancer and immune diseases” (AbbVie Inc., priority 2008, dated 2015).

Tested on: GST-Bcl-2
Test: TR-FRET binding assay, Bcl-2
Settings: TR-FRET Ki values
Outline: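 Ki values come from Wang's competitive-binding equation applied to TR-FRET signal (excitation 340/35 nm; emission 520/525 nm F-Bak peptide, 495/510 nm Tb antibody). Protein, probe and antibody incubated with compound 3 h at room temperature; dilution series began at 50 μM as 2× stock in 10% DMSO.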

Q: `CC1(C)CCC(CN2CCN(c3ccc(C(=O)NS(=O)(=O)c4ccc(OC[C@@H]5COCCO5)c([N+](=O)[O-])c4)c(Oc4ccc5[nH]ccc5c4)c3)CC2)=C(c2ccc(Cl)cc2)C1` [EXAMPLE 347, 4-(4-{[2-(4-chlorophenyl)-4,4-dimethylcyclohex-1-en-1-yl]methyl}piperazin-1-yl)-N-({4-[(2S)-1,4-dioxan-2-ylmethoxy]-3-nitrophenyl}sulfonyl)-2-(1H-indol-5-yloxy)benzamide] was tested. Which “Binding selectivity ratio (Bcl-XL Ki/Bcl-2 Ki)” value (from here on “Binding selectivity ratio”) did it give?
A: 1256.7

Q: How did the “Binding selectivity ratio” value turn out when `O=C(NS(=O)(=O)c1ccc(NCC2CCOCC2)c(S(=O)(=O)C(F)(F)F)c1)c1ccc(N2CCN(Cc3ccccc3-c3ccc(Cl)cc3)CC2)cc1Oc1ccc2ccccc2c1` [Example 37, 4-{4-[(4′-chloro-1,1′-biphenyl-2-yl)methyl]piperazin-1-yl}-2-(2-naphthyloxy)-N-({4-[(tetrahydro-2H-pyran-4-ylmethyl)amino]-3-[(trifluoromethyl)sulfonyl]phenyl}sulfonyl)benzamide] was run?
A: 95.7

Q: Which “Binding selectivity ratio” value does the source give for `CN1CCN(CCNc2ccc(S(=O)(=O)NC(=O)c3ccc(N4CCN(CC5=C(c6ccc(Cl)cc6)CC(C)(C)CC5)CC4)cc3Oc3cccc4[nH]ccc34)cc2[N+](=O)[O-])CC1` [Example 101, 4-(4-{[2-(4-chlorophenyl)-4,4-dimethylcyclohex-1-en-1-yl]methyl}piperazin-1-yl)-2-(1H-indol-4-yloxy)-N-[(4-{[2-(4-methylpiperazin-1-yl)ethyl]amino}-3-nitrophenyl)sulfonyl]benzamide] here?
A: 121.2

Q: With `CC1(C)CCC(CN2CCN(c3ccc(C(=O)NS(=O)(=O)c4ccc(NC5CCS(=O)(=O)C5)c([N+](=O)[O-])c4)c(Oc4ccc5[nH]ccc5c4)c3)CC2)=C(c2ccc(Cl)cc2)C1` (centres unmarked) [EXAMPLE 276, 4-(4-{[2-(4-chlorophenyl)-4,4-dimethylcyclohex-1-en-1-yl]methyl}piperazin-1-yl)-N-({4-[(1,1-dioxidotetrahydrothien-3-yl)amino]-3-nitrophenyl}sulfonyl)-2-(1H-indol-5-yloxy)benzamide] as the compound, how does the “Binding selectivity ratio” value read?
A: 2650.8

Q: For `CC1(C)CCC(CN2CCN(c3ccc(C(=O)NS(=O)(=O)c4ccc(S(C)(=O)=O)cc4)c(Oc4cccc5[nH]ccc45)c3)CC2)=C(c2ccc(Cl)cc2)C1` [EXAMPLE 383, 4-(4-{[2-(4-chlorophenyl)-4,4-dimethylcyclohex-1-en-1-yl]methyl}piperazin-1-yl)-2-(1H-indol-4-yloxy)-N-{[4-(methylsulfonyl)phenyl]sulfonyl}benzamide], which “Binding selectivity ratio” value is on record?
A: >304.1

Q: How did the “Binding selectivity ratio” value turn out when `CC(=O)N1CCOC(CNc2ccc(S(=O)(=O)NC(=O)c3ccc(N4CCN(CC5=C(c6ccc(Cl)cc6)CC(C)(C)CC5)CC4)cc3Oc3cccc4[nH]cnc34)cc2[N+](=O)[O-])C1` (centres unmarked) [EXAMPLE 457, N-[(4-{[(4-acetylmorpholin-2-yl)methyl]amino}-3-nitrophenyl)sulfonyl]-2-(1H-benzimidazol-4-yloxy)-4-(4-{[2-(4-chlorophenyl)-4,4-dimethylcyclohex-1-en-1-yl]methyl}piperazin-1-yl)benzamide] was run?
A: 7414

Q: With `CC1(C)CCC(CN2CCN(c3ccc(C(=O)NS(=O)(=O)c4ccc(NC5CCS(=O)(=O)C5)c([N+](=O)[O-])c4)c(Oc4cccc5[nH]ccc45)c3)CC2)=C(c2ccc(Cl)cc2)C1` (centres unmarked) [EXAMPLE 299, 4-(4-{[2-(4-chlorophenyl)-4,4-dimethylcyclohex-1-en-1-yl]methyl}piperazin-1-yl)-N-({4-[(1,1-dioxidotetrahydrothien-3-yl)amino]-3-nitrophenyl}sulfonyl)-2-(1H-indol-4-yloxy)benzamide] as the compound, how does the “Binding selectivity ratio” value read?
A: 577.7

Q: Which “Binding selectivity ratio” value does the source give for `CC1(C)CCC(CN2CCN(c3ccc(C(=O)NS(=O)(=O)c4ccc(NN5CCOCC5)c([N+](=O)[O-])c4)c(Oc4ccc5[nH]ccc5c4)c3)CC2)=C(c2ccc(Cl)cc2)C1` [EXAMPLE 260, 4-(4-{[2-(4-chlorophenyl)-4,4-dimethylcyclohex-1-en-1-yl]methyl}piperazin-1-yl)-2-(1H-indol-5-yloxy)-N-{[4-(morpholin-4-ylamino)-3-nitrophenyl]sulfonyl}benzamide] here?
A: >607.2

Q: How did the “Binding selectivity ratio” value turn out when `O=C(NS(=O)(=O)c1ccc(NCC2CCOCC2)c(S(=O)(=O)C(F)(F)F)c1)c1ccc(N2CCN(Cc3ccccc3-c3ccc(Cl)cc3)CC2)cc1Oc1ccc2[nH]ccc2c1` [Example 62, 4-{4-[(4′-chloro-1,1′-biphenyl-2-yl)methyl]piperazin-1-yl}-2-(1H-indol-5-yloxy)-N-({4-[(tetrahydro-2H-pyran-4-ylmethyl)amino]-3-[(trifluoromethyl)sulfonyl]phenyl}sulfonyl)benzamide] was run?
A: 162.4

Q: Which “Binding selectivity ratio” value does the source give for `CC1(C)CCC(CN2CCN(c3ccc(C(=O)NS(=O)(=O)c4ccc(NCC5CCC(F)(F)CC5)c([N+](=O)[O-])c4)c(Oc4cccc5[nH]cnc45)c3)CC2)=C(c2ccc(Cl)cc2)C1` [EXAMPLE 456, 2-(1H-benzimidazol-4-yloxy)-4-(4-{[2-(4-chlorophenyl)-4,4-dimethylcyclohex-1-en-1-yl]methyl}piperazin-1-yl)-N-[(4-{[(4,4-difluorocyclohexyl)methyl]amino}-3-nitrophenyl)sulfonyl]benzamide] here?
A: 53.991

Q: With `COCCOCCN1CC[C@@H](Nc2ccc(S(=O)(=O)NC(=O)c3ccc(N4CCN(CC5=C(c6ccc(Cl)cc6)CC(C)(C)CC5)CC4)cc3Oc3cccc4[nH]cnc34)cc2[N+](=O)[O-])C1` [EXAMPLE 429, 2-(1H-benzimidazol-4-yloxy)-4-(4-{[2-(4-chlorophenyl)-4,4-dimethylcyclohex-1-en-1-yl]methyl}piperazin-1-yl)-N-{[4-({(3R)-1-[2-(2-methoxyethoxy)ethyl]pyrrolidin-3-yl}amino)-3-nitrophenyl]sulfonyl}benzamide] as the compound, how does the “Binding selectivity ratio” value read?
A: 140.65

Q: How did the “Binding selectivity ratio” value turn out when `COCCOCCNc1ccc(S(=O)(=O)NC(=O)c2ccc(N3CCN(CC4=C(c5ccc(Cl)cc5)CC(C)(C)CC4)CC3)cc2Oc2cccc3[nH]ccc23)cc1[N+](=O)[O-]` [EXAMPLE 293, 4-(4-{[2-(4-chlorophenyl)-4,4-dimethylcyclohex-1-en-1-yl]methyl}piperazin-1-yl)-2-(1H-indol-4-yloxy)-N-[(4-{[2-(2-methoxyethoxy)ethyl]amino}-3-nitrophenyl)sulfonyl]benzamide] was run?
A: 505.1

Q: Which “Binding selectivity ratio” value does the source give for `CC(C)Oc1cc(-c2ccc(Cl)cc2)c(CN2CCN(c3ccc(C(=O)NS(=O)(=O)c4ccc(NCC5CCOCC5)c([N+](=O)[O-])c4)c(Oc4ccc5[nH]ccc5c4)c3)CC2)cn1` [EXAMPLE 330, 4-(4-{[4-(4-chlorophenyl)-6-isopropoxypyridin-3-yl]methyl}piperazin-1-yl)-2-(1H-indol-5-yloxy)-N-({3-nitro-4-[(tetrahydro-2H-pyran-4-ylmethyl)amino]phenyl}sulfonyl)benzamide] here?
A: >8.8

Q: How did the “Binding selectivity ratio” value turn out when `COc1ccc(Nc2ccc(S(=O)(=O)NC(=O)c3ccc(N4CCN(CC5=C(c6ccc(Cl)cc6)CC(C)(C)CC5)CC4)cc3Oc3ccc4[nH]ccc4c3)cc2[N+](=O)[O-])cc1O` [EXAMPLE 394, 4-(4-{[2-(4-chlorophenyl)-4,4-dimethylcyclohex-1-en-1-yl]methyl}piperazin-1-yl)-N-({4-[(3-hydroxy-4-methoxyphenyl)amino]-3-nitrophenyl}sulfonyl)-2-(1H-indol-5-yloxy)benzamide] was run?
A: >263262.863980854
